Assay: Membrane potential dye assay: HEK-293 cells overexpressing the channel of interest were seeded in a 96-well plate at a density of 30000 cells/well and incubated at 37° C./5% CO2 for 48 hr. The assay was carried out using the Red Membrane Potential Dye (Molecular Devices) following the manufacturer's instructions. Briefly, the cells were incubated with 1× red membrane potential dye for 1.5 hour. The cells were then treated with various concentrations of the test compounds for 15-20 min followed by depolarization with 10-30 μM Veratridine. The fluorescence was read following excitation at 510-545 nm and emission at 565-625 nm in FLIPR. The “max-min” fluorescence values were used to calculate the % inhibition.
Conditions: HEK293

Structure (SMILES)	IC50 [µM]
O=S(=O)(Nc1ncc(F)cn1)c1ccc2c(c1)OCC[C@@H]2c1ccc(C(F)(F)F)cc1-c1ccc(F)nc1	> 10
COCCOc1cc(C(F)(F)F)ccc1[C@H]1CCOc2cc(S(=O)(=O)Nc3ncc(F)cn3)ccc21 (racemic)	> 10
O=S(=O)(Nc1ncc(F)cn1)c1ccc2c(c1)OCC[C@H]2c1ccc(C(F)(F)F)cc1-n1ccnn1	> 10
Cn1nccc1-c1cc(C(F)(F)F)ccc1[C@@H]1CCOc2cc(S(=O)(=O)Nc3cccnc3F)ccc21	> 10
O=C1COCCN1c1cc(C(F)(F)F)ccc1[C@H]1CCOc2cc(S(=O)(=O)Nc3ncccn3)ccc21	> 10
O=S(=O)(Nc1cccc(F)n1)c1ccc2c(c1)OCC[C@@H]2c1ccc(C(F)(F)F)cc1-n1ccnn1	> 10
COCCCCc1cc(C(F)(F)F)ccc1[C@H]1CCOc2cc(S(=O)(=O)Nc3ncc(F)cn3)ccc21 (racemic)	> 10
O=S(=O)(Nc1cccc(F)n1)c1ccc2c(c1)OCC[C@H]2c1ccc(C(F)(F)F)cc1-c1ccc(F)cc1	> 10
O=S1(=O)CCN(c2cc(C(F)(F)F)ccc2[C@H]2CCOc3cc(S(=O)(=O)Nc4cccnn4)ccc32)CC1 (racemic)	> 10
Cn1nccc1-c1cc(C(F)(F)F)ccc1[C@@H]1CCOc2cc(S(=O)(=O)Nc3cc(F)ccn3)ccc21	> 10
O=S(=O)(Nc1cccc(F)n1)c1ccc2c(c1)OCC[C@H]2c1ccc(C(F)(F)F)cc1-n1ccnn1	> 10
O=S(=O)(Nc1cccnn1)c1ccc2c(c1)OCC[C@H]2c1ccc(C(F)(F)F)cc1-c1ccc(F)nc1	> 10
Cn1nccc1-c1cc(C(F)(F)F)ccc1[C@H]1CCOc2cc(S(=O)(=O)Nc3cnccn3)ccc21	> 10
COCCCOc1cc(C(F)(F)F)ccc1[C@@H]1CCOc2cc(S(=O)(=O)Nc3ncccn3)ccc21	> 10
CS(=O)(=O)CCc1cc(C(F)(F)F)ccc1[C@H]1CCOc2cc(S(=O)(=O)Nc3ccncn3)ccc21	> 10
O=S(=O)(Nc1cccc(F)n1)c1ccc2c(c1)OCC[C@@H]2c1ccc(C(F)(F)F)cc1CCF (racemic)	> 10
O=S(=O)(Nc1ncc(F)cn1)c1ccc2c(c1)OCC[C@H]2c1ccc(C(F)(F)F)cc1-c1ccc(F)cc1	> 10
Cn1nccc1-c1cc(C(F)(F)F)ccc1[C@@H]1CCOc2cc(S(=O)(=O)Nc3ccncn3)ccc21	> 10
O=C(O)c1ccc(-c2cc(C(F)(F)F)ccc2[C@H]2CCOc3cc(S(=O)(=O)Nc4cccc(F)n4)ccc32)cc1 (racemic)	> 10

Structure (SMILES)	IC50 [µM]
O=S(=O)(Nc1ccncn1)c1ccc2c(c1)OCC[C@@H]2c1ccc(C(F)(F)F)cc1Cl (racemic)	> 10
O=S(=O)(Nc1cccnn1)c1ccc2c(c1)OCC[C@@H]2c1ccc(C(F)(F)F)cc1-c1ccc(F)cn1	> 10
O=C(O)c1ccc(-c2cc(C(F)(F)F)ccc2[C@H]2CCOc3cc(S(=O)(=O)Nc4ncc(F)cn4)ccc32)cc1	> 10
O=S(=O)(Nc1ccncn1)c1ccc2c(c1)OCC[C@H]2c1ccc(C(F)(F)F)cc1-c1ccc(F)cc1	> 10
COCCc1cc(C(F)(F)F)ccc1[C@H]1CCOc2cc(S(=O)(=O)Nc3ccncn3)ccc21 (racemic)	> 10
O=S(=O)(Nc1ncc(F)cn1)c1ccc2c(c1)OCC[C@@H]2c1ccc(C(F)(F)F)cc1-c1ccc(F)cc1	> 10
O=S(=O)(Nc1cccnn1)c1ccc2c(c1)OCC[C@H]2c1ccc(C(F)(F)F)cc1OC1CCOCC1	> 10
Cn1nccc1-c1cc(C(F)(F)F)ccc1[C@@H]1CCOc2cc(S(=O)(=O)Nc3ncccc3F)ccc21	> 10
O=C1CCCN1c1cc(C(F)(F)F)ccc1[C@H]1CCOc2cc(S(=O)(=O)Nc3cccnn3)ccc21 (racemic)	> 10
O=C1CCCN1c1cc(C(F)(F)F)ccc1[C@H]1CCOc2cc(S(=O)(=O)Nc3ncc(F)cn3)ccc21	> 10
CCOc1ccc(-c2cc(C(F)(F)F)ccc2[C@H]2CCOc3cc(S(=O)(=O)Nc4ncc(F)cn4)ccc32)cn1	> 10
O=C(O)c1ccc(-c2cc(C(F)(F)F)ccc2[C@@H]2CCOc3cc(S(=O)(=O)Nc4ncc(F)cn4)ccc32)cc1	> 10
O=C1OCCN1c1cc(C(F)(F)F)ccc1[C@H]1CCOc2cc(S(=O)(=O)Nc3ncc(F)cn3)ccc21 (racemic)	> 10
Cc1cccc(NS(=O)(=O)c2ccc3c(c2)OCC[C@H]3c2ccc(C(F)(F)F)cc2-c2ccnn2C)n1	> 10
CS(=O)(=O)CCc1cc(C(F)(F)F)ccc1[C@H]1CCOc2cc(S(=O)(=O)Nc3ncccn3)ccc21	> 10
O=S(=O)(Nc1ncc(F)cn1)c1ccc2c(c1)OCC[C@@H]2c1ccc(C(F)(F)F)cc1CCF (racemic)	> 10
Cn1nccc1-c1cc(C(F)(F)F)ccc1[C@H]1CCOc2cc(S(=O)(=O)Nc3ccncn3)ccc21	> 10
COc1cc(C(F)(F)F)ccc1[C@@H]1CCOc2cc(S(=O)(=O)Nc3cccc(F)n3)ccc21	> 10
O=S(=O)(Nc1ncccn1)c1ccc2c(c1)OCC[C@H]2c1ccc(C(F)(F)F)cc1N1CCOCC1	> 10

Structure (SMILES)	IC50 [µM]
O=S(=O)(Nc1ccncn1)c1ccc2c(c1)OCC[C@@H]2c1ccc(C(F)(F)F)cc1-n1ccnn1	> 10
CS(=O)(=O)CCc1cc(C(F)(F)F)ccc1[C@@H]1CCOc2cc(S(=O)(=O)Nc3ccncn3)ccc21	> 10
O=S(=O)(Nc1ncccn1)c1ccc2c(c1)OCC[C@@H]2c1ccc(C(F)(F)F)cc1-n1ccnn1	> 10
CC(C)Oc1ccc([C@H]2CCOc3cc(S(=O)(=O)Nc4cccc(F)n4)ccc32)c(-c2ccnn2C)c1	> 10
O=S(=O)(Nc1ncc(F)cn1)c1ccc2c(c1)OCC[C@H]2c1ccc(C(F)(F)F)cc1OC1CCOCC1	> 10
CCCc1cc(C(F)(F)F)ccc1[C@@H]1CCOc2cc(S(=O)(=O)Nc3ncccn3)ccc21	> 10
O=S(=O)(Nc1ncc(F)cn1)c1ccc2c(c1)OCC[C@H]2c1ccc(C(F)(F)F)cc1-c1ccc(F)nc1	> 10
CCCc1cc(C(F)(F)F)ccc1[C@H]1CCOc2cc(S(=O)(=O)Nc3ncc(F)cn3)ccc21	> 10
Cc1nc(-c2cc(C(F)(F)F)ccc2[C@H]2CCOc3cc(S(=O)(=O)Nc4ncccn4)ccc32)cs1	> 10
COCCCc1cc(C(F)(F)F)ccc1[C@H]1CCOc2cc(S(=O)(=O)Nc3ncc(F)cn3)ccc21 (racemic)	> 10
Cc1nc(-c2cc(C(F)(F)F)ccc2[C@@H]2CCOc3cc(S(=O)(=O)Nc4cccnn4)ccc32)co1	> 10
O=S(=O)(Nc1ccncn1)c1ccc2c(c1)OCC[C@@H]2c1ccc(C(F)(F)F)cc1-c1ccc(F)cc1	> 10
Cn1nccc1-c1cc(Cl)ccc1[C@@H]1CCOc2cc(S(=O)(=O)Nc3cccc(F)n3)ccc21	> 10
O=S(=O)(Nc1cccc(F)n1)c1ccc2c(c1)OCC[C@H]2c1ccc(C(F)(F)F)cc1-n1cccn1	> 10
O=S(=O)(Nc1ccncn1)c1ccc2c(c1)OCC[C@H]2c1ccc(C(F)(F)F)cc1-n1ccnn1	> 10
O=S(=O)(Nc1ncc(F)cn1)c1ccc2c(c1)OCC[C@@H]2c1ccc(C(F)(F)F)cc1OC1COC1 (racemic)	> 10
O=S(=O)(Nc1ncccn1)c1ccc2c(c1)OCC[C@H]2c1ccc(C(F)(F)F)cc1-c1ccc(F)cn1	> 10
O=C(O)c1ccc(-c2cc(C(F)(F)F)ccc2[C@H]2CCOc3cc(S(=O)(=O)Nc4ncccn4)ccc32)cc1	> 10
O=S(=O)(Nc1ncc(F)cn1)c1ccc2c(c1)OCC[C@@H]2c1ccc(C(F)(F)F)cc1-n1ccnn1	> 10

— ChEMBL document CHEMBL5726766, “Sulfonamide compounds as voltage-gated sodium channel modulators” (2019)
